Measured values: ChEMBL document CHEMBL2086246, “Synthesis and optimization of substituted furo[2,3-d]-pyrimidin-4-amines and 7H-pyrrolo[2,3-d]pyrimidin-4-amines as ACK1 inhibitors” (Bioorg Med Chem Lett, 2012)
Active and inactive are the calls of the source. The calls are words filed in the database; no cut-off is given here.

Assays:
Activated CDC42 kinase 1 [1] = target: T1, Activated CDC42 kinase 1 (Homo sapiens, UniProt Q07912); assay: Inhibition of N-terminal His6-tagged ACK1 expressed in baculovirus infected Hi5 cells assessed as inhibition of autophosphorylation after 2 hrs by ELISA; set-up: species or system BTI-TN-5B1-4
Target sequence in this assay (Q07912 whole entry): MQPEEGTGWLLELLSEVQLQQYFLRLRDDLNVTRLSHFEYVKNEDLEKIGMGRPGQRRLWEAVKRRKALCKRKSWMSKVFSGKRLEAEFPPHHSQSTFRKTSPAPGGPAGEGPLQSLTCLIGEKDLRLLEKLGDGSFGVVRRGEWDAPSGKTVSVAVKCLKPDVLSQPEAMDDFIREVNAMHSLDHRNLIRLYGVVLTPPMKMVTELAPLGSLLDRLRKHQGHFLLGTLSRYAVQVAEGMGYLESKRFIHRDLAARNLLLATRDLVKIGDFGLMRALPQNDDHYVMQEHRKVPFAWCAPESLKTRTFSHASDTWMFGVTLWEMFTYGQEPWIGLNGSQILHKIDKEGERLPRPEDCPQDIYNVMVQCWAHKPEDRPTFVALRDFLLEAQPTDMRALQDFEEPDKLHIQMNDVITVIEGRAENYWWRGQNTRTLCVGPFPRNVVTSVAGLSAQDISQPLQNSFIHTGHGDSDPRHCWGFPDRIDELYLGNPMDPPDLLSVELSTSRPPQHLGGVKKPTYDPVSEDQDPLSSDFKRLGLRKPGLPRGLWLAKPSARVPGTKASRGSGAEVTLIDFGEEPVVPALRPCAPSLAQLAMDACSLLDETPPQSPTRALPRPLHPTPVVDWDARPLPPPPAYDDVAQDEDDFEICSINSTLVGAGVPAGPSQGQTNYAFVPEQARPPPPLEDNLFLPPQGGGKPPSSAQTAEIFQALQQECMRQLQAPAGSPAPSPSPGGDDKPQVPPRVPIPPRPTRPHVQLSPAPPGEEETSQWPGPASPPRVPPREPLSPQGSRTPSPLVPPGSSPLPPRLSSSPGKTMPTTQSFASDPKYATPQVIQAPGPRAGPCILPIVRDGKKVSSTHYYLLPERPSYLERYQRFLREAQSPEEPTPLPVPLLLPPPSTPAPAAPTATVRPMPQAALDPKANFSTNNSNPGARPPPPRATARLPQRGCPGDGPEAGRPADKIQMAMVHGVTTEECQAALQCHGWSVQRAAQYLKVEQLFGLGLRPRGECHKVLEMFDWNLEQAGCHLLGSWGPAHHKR

Activated CDC42 kinase 1 [2] = target: T1, Activated CDC42 kinase 1; assay: Competitive inhibition of ACK1 using ATP
Target sequence in this assay (Q07912 whole entry, looked up): as the sequence (Q07912 whole entry) above

Activated CDC42 kinase 1 [3] = target: T1, Activated CDC42 kinase 1; assay: Reversible inhibition of ACK1
Target sequence in this assay (Q07912 whole entry, looked up): as the sequence (Q07912 whole entry) above

Activated CDC42 kinase 1 [4] = target: T1, Activated CDC42 kinase 1; assay: Inhibition of ACK1
Target sequence in this assay (Q07912 whole entry): as above

[5] = Drug metabolism in rat liver S9 fraction assessed as dithiolane ring oxidation; type: ADME, subcellular
[6] = Volume of distribution at steady state in Sprague-Dawley rat at 1 mg/kg, iv; type: ADME, organism-based; set-up: dose 1 mg/kg, route intravenous; details: in vivo, read-out: Vdss
[7] = Drug metabolism in rat liver S9 fraction assessed as dimethylamino oxidation; type: ADME, subcellular
[8] = Clearance in Sprague-Dawley rat at 1 mg/kg, iv; type: ADME, organism-based; set-up: dose 1 mg/kg, route intravenous; details: in vivo
[9] = Mean residence time in Sprague-Dawley rat at 1 mg/kg, iv; type: ADME, organism-based; set-up: dose 1 mg/kg, route intravenous; details: in vivo
Angiopoietin-1 receptor = Angiopoietin-1 receptor (Homo sapiens, UniProt Q02763); assay: Inhibition of TIE2
[10] = target: Vascular endothelial growth factor receptor 2 (Homo sapiens, UniProt P35968); assay: Inhibition of KDR
[11] = target: Tyrosine-protein kinase Lck (Homo sapiens, UniProt P06239); assay: Inhibition of LCK
[12] = target: T2, Tyrosine-protein kinase JAK3 (Homo sapiens, UniProt P52333); assay: Inhibition of JAK3
T2 sequence (P52333 whole entry): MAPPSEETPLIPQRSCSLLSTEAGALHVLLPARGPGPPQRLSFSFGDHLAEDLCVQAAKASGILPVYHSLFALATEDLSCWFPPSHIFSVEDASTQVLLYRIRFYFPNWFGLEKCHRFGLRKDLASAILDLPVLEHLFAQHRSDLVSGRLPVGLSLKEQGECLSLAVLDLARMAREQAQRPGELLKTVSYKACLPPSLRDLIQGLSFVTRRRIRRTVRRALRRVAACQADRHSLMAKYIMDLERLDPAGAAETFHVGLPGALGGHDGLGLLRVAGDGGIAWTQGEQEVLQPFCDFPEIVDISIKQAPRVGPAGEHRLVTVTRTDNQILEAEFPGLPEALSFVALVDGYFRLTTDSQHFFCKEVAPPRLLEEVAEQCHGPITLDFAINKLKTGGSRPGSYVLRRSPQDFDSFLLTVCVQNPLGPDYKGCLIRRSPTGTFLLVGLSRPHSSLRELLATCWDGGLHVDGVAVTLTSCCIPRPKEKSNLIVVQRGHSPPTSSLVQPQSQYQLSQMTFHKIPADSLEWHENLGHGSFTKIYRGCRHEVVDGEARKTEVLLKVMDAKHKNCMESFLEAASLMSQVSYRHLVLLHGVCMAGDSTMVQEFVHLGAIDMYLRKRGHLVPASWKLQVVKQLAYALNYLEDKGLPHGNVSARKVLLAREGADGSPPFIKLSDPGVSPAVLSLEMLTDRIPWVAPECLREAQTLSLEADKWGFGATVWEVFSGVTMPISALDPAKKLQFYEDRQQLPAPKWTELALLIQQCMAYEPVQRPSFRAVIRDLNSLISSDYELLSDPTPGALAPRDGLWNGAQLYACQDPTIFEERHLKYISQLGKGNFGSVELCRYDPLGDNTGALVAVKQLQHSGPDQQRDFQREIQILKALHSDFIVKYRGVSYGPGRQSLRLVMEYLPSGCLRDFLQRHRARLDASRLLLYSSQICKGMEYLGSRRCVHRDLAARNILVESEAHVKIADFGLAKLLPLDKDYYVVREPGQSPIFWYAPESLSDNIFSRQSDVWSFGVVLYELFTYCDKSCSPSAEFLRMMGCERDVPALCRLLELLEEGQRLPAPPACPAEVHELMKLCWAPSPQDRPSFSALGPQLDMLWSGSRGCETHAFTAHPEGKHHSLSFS

Activated CDC42 kinase 1 [13] = target: Activated CDC42 kinase 1 (Mus musculus, UniProt O54967); assay: Inhibition of ACK1 in mouse C8 cells assessed as decrease in cell viability after 20 to 24 hrs; type: cell-based
Activated CDC42 kinase 1 (Mus musculus, UniProt O54967), sequence (O54967 whole entry): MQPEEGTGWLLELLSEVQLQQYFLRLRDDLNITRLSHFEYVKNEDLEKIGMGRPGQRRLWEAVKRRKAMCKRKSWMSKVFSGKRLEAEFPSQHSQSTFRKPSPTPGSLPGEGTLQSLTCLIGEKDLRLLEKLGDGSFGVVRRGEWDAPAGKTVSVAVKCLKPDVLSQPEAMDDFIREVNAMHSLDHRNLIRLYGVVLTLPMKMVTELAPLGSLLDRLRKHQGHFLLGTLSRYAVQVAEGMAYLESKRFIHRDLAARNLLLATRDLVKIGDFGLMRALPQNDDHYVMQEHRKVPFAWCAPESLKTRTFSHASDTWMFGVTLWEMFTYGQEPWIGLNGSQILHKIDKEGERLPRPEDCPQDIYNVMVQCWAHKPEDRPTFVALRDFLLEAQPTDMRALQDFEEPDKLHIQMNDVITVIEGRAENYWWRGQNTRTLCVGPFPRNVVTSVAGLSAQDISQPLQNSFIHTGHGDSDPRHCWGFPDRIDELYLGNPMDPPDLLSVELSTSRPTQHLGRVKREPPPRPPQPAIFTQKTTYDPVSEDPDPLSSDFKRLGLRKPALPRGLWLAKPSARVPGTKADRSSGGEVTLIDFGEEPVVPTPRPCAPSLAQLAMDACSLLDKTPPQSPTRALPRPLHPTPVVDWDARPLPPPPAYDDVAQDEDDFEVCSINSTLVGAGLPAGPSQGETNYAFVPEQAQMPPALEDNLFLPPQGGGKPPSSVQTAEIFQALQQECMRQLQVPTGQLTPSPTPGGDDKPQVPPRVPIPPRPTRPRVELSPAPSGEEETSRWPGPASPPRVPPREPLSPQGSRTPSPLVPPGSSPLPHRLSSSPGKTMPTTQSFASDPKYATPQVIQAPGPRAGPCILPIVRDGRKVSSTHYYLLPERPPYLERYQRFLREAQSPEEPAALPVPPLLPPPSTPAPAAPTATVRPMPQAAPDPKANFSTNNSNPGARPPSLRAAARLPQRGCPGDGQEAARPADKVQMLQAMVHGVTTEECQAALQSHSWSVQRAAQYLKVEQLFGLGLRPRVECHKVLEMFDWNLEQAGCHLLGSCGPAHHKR

Angiopoietin-1 receptor, sequence (Q02763 whole entry): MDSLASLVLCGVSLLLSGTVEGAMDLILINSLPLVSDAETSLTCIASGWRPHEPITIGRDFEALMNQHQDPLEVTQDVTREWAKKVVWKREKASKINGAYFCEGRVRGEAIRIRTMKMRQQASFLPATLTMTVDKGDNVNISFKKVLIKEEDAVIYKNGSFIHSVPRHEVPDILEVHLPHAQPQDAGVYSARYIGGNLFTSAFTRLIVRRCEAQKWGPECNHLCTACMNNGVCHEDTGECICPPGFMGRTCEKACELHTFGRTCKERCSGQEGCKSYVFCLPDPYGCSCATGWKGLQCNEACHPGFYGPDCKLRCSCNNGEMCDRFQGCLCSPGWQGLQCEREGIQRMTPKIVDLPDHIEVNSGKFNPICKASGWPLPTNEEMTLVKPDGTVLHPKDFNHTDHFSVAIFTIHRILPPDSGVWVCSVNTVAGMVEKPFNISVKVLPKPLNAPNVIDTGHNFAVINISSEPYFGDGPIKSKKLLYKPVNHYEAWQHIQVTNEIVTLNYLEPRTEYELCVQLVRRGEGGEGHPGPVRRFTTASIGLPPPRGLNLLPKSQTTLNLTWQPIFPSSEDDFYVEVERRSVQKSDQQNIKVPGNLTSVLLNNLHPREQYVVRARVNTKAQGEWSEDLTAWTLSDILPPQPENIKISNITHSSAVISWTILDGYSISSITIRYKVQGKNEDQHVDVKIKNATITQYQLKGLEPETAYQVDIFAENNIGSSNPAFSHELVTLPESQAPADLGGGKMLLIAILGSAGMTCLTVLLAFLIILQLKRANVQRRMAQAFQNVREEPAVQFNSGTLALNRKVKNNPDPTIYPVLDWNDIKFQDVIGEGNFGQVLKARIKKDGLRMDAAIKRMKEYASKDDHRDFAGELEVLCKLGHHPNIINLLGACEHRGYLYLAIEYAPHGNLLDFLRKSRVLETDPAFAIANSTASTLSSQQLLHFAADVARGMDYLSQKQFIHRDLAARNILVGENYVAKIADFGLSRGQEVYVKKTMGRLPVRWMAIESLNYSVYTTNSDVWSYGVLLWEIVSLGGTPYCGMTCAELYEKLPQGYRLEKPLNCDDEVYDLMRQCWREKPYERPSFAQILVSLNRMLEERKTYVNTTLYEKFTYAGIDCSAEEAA
Tyrosine-protein kinase Lck, sequence (P06239 whole entry): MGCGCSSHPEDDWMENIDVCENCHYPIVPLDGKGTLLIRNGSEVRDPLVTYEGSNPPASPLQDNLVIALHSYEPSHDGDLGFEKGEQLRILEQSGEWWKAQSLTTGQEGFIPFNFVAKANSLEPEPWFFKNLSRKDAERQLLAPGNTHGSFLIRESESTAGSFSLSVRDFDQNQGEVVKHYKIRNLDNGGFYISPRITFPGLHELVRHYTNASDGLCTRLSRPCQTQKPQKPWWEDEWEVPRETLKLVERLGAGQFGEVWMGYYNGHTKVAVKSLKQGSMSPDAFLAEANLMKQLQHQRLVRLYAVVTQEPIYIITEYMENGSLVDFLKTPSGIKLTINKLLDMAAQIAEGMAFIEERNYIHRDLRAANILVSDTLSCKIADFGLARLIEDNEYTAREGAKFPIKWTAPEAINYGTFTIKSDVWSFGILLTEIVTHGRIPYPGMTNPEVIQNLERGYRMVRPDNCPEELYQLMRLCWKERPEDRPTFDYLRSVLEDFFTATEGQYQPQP

Ki (Activated CDC42 kinase 1 [1]) [nM] | Structure (SMILES) | also measured
6 | O=C(c1ccc(-c2oc3ncnc(NC[C@@H]4CCCO4)c3c2-c2ccccc2)cc1)N1CCOCC1 | 
10 | COc1cccc(-c2c(-c3ccc(OCCN4CCCC4)cc3)[nH]c3ncnc(NC[C@@H]4CCCO4)c23)c1 | 
20 | CO[C@@H]1CC[C@H]1CNc1ncnc2[nH]c(-c3ccc(OCCN(C)C)cc3)c(-c3ccccc3)c12 (racemic) | 
50 | CO[C@@H]1CCC[C@@H]1CNc1ncnc2[nH]c(-c3ccc(OCCN(C)C)cc3)c(-c3ccccc3)c12 | 
1800 | c1ccc(-c2nc3ncnc(NC[C@@H]4CCCO4)n3c2-c2ccccc2)cc1 | 
4 | O=C1CCCN1CCOc1ccc(-c2oc3ncnc(NC[C@@H]4CCCO4)c3c2-c2ccccc2)cc1 | 
4 | CNS(=O)(=O)c1ccc(-c2oc3ncnc(NC[C@@H]4CCCO4)c3c2-c2ccccc2)cc1 | 
6 | CN(C)CCOc1ccc(-c2[nH]c3ncnc(NC[C@@H]4CCCO4)c3c2-c2ccccc2)cc1 | 
2 | CN(C)S(=O)(=O)c1ccc(-c2[nH]c3ncnc(NC[C@@H]4CCCO4)c3c2-c2ccccc2)cc1 | 
10 | CN(C)CCOc1ccc(-c2[nH]c3ncnc(NC[C@@H]4CCCO4)c3c2C2=CCCCC2)cc1 | 
4 | c1ccc(-c2c(-c3ccc(OCCN4CCOCC4)cc3)oc3ncnc(NC[C@@H]4CCCO4)c23)cc1 | 
 | Nc1ncnc2oc(-c3ccccc3)c(-c3ccccc3)c12 | inhibition (Activated CDC42 kinase 1 [2]): Active; inhibition (Activated CDC42 kinase 1 [3]): Active; Ki (Activated CDC42 kinase 1 [4]): 1000 nM
4 | CN(C)CCOc1ccc(-c2oc3ncnc(NCC4SCCCS4)c3c2-c2ccccc2)cc1 | 
 | CN(C)CCOc1ccc(-c2[nH]c3ncnc(NCC4SCCS4)c3c2-c2ccccc2)cc1 | Drug metabolism [5]: Active; Vd [6]: 26.6 L/kg; Drug metabolism [7]: Active; clearance [8]: 125 mL/min/kg; MRT [9]: 3.6 h
30 | CN(C)CCOc1ccc(-c2[nH]c3ncnc(NC[C@@H]4CC[C@H]4O)c3c2-c2ccccc2)cc1 (racemic) | 
4 | O=C1CCCN1CCOc1ccc(-c2[nH]c3ncnc(NC[C@@H]4CCCO4)c3c2-c2ccccc2)cc1 | 
0.3 | c1ccc(-c2c(-c3ccc(OCCN4CCCC4)cc3)[nH]c3ncnc(NCC4SCCS4)c23)cc1 | Vd [6]: 15.6 L/kg; Ki (Angiopoietin-1 receptor): 200 nM; clearance [8]: 113 mL/min/kg; Ki [10]: 380 nM; MRT [9]: 2.3 h; Ki [11]: 138 nM; Ki [12]: 6.5 nM
3 | CNC(=O)c1ccc(-c2[nH]c3ncnc(NC[C@@H]4CCCO4)c3c2-c2ccccc2)cc1 | 
2 | CNS(=O)(=O)c1ccc(-c2[nH]c3ncnc(NC[C@@H]4CCCO4)c3c2-c2ccccc2)cc1 | 
5 | COc1ccc(-c2oc3ncnc(NC[C@@H]4CCCO4)c3c2-c2ccccc2)cc1 | 
6 | c1ccc(-c2c(-c3ccc(OCCN4CCOCC4)cc3)[nH]c3ncnc(NC[C@@H]4CCCO4)c23)cc1 | 
> 10000 | c1ccc(-c2sc3ncnc(NC[C@@H]4CCCO4)c3c2-c2ccccc2)cc1 | 

Ki (Activated CDC42 kinase 1 [1]) [nM] | Structure (SMILES) | also measured
69 | CN(C)CCOc1ccc(-c2oc3ncnc(NC[C@@H]4CCCCS4)c3c2-c2ccccc2)cc1 | 
6 | COc1ccc(-c2[nH]c3ncnc(NC[C@@H]4CCCO4)c3c2-c2ccccc2)cc1 | 
13 | CNC(=O)c1ccc(-c2oc3ncnc(NC[C@@H]4CCCO4)c3c2-c2ccccc2)cc1 | 
70 | c1ccc(-c2oc3nccc(NC[C@@H]4CCCO4)c3c2-c2ccccc2)cc1 | 
6 | c1ccc(-c2[nH]c3ncnc(NC[C@@H]4CCCO4)c3c2-c2ccccc2)cc1 | 
20 | Cc1ccccc1-c1c(-c2ccc(OCCN3CCCC3)cc2)[nH]c2ncnc(NC[C@@H]3CCCO3)c12 | 
8 | CN(C)CCOc1ccc(-c2oc3ncnc(NCC4CCCS4)c3c2-c2ccccc2)cc1 (racemic) | 
4 | Fc1ccccc1-c1c(-c2ccc(OCCN3CCCC3)cc2)[nH]c2ncnc(NC[C@@H]3CCCO3)c12 | 
13 | CN(C)CCOc1ccc(-c2oc3ncnc(NCC4OCCO4)c3c2-c2ccccc2)cc1 | 
2 | CN(C)C(=O)c1ccc(-c2[nH]c3ncnc(NC[C@@H]4CCCO4)c3c2-c2ccccc2)cc1 | 
40 | c1cncc(-c2c(-c3ccc(OCCN4CCCC4)cc3)[nH]c3ncnc(NC[C@@H]4CCCO4)c23)c1 | 
1980 | CN(C)CCOc1ccc(-c2[nH]c3ncnc(NC[C@@H]4CCCO4)c3c2C2CC2)cc1 | IC50 (Activated CDC42 kinase 1 [13]): Not Active
0.2 | CN(C)CCOc1ccc(-c2oc3ncnc(NCC4SCCS4)c3c2-c2ccccc2)cc1 | 
6 | c1ccc(-c2c(-c3ccc(OCCN4CCCC4)cc3)[nH]c3ncnc(NC[C@@H]4CCCO4)c23)cc1 | 
6 | O=C(c1ccc(-c2[nH]c3ncnc(NC[C@@H]4CCCO4)c3c2-c2ccccc2)cc1)N1CCOCC1 | 
10 | CN(C)C(=O)c1ccc(-c2oc3ncnc(NC[C@@H]4CCCO4)c3c2-c2ccccc2)cc1 | 
7300 | c1ccc(-c2nc3ncnc(NC[C@@H]4CCCO4)c3n2-c2ccccc2)cc1 | 
7 | CS(=O)(=O)c1ccc(-c2[nH]c3ncnc(NC[C@@H]4CCCO4)c3c2-c2ccccc2)cc1 | 
8 | CS(=O)(=O)c1ccc(-c2oc3ncnc(NC[C@@H]4CCCO4)c3c2-c2ccccc2)cc1 | 
5 | CN(C)CCOc1ccc(-c2oc3ncnc(NC[C@@H]4CCCO4)c3c2-c2ccccc2)cc1 | 
50 | CO[C@@H]1CCC[C@H]1CNc1ncnc2[nH]c(-c3ccc(OCCN(C)C)cc3)c(-c3ccccc3)c12 | 
20 | CN(C)CCOc1ccc(-c2[nH]c3ncnc(NC[C@@H]4CCCO4)c3c2C2=CCCC2)cc1 | 
